Measurements from patent publication US20240239775A1, “FXR REGULATOR, PREPARATION METHOD THEREFOR, PHARMACEUTICAL COMPOSITION THEREOF AND USE THEREOF” (QINGDAO RUIJI MEDICAL TECHNOLOGY CO., LTD., priority 2021, published 2024).

Each compound was assayed against T1, FXR (Homo sapiens, UniProt Q96RI1) (assay: FXR antagonist screening by TR-FRET (LanthaScreen TR-FRET FXR co-activation assay kit)). Settings: Table 1.1, FXR antagonistic activity; TR-FRET with CDCA; geometric means of at least two independent runs.
T1 construct: 5 μL of 20 nM FXR-LBD Complete Coregulator buffer G; purchased ThermoFisher PV4833
T1 sequence (Q96RI1 262-486 limits assumed): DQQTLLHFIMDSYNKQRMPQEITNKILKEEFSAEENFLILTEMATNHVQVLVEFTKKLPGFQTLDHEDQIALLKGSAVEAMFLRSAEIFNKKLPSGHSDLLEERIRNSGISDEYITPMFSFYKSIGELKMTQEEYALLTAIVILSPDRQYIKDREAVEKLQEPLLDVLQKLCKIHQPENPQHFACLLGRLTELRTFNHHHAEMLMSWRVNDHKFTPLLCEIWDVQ
Format: biochemical
In short: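 FXR-LBD (20 nM working solution) mixed with compound, CDCA (200 μM working solution) as agonist, Fluorescein-SRC2-2 and Tb-anti-GST antibody in Coregulator buffer G; 10 h at room temperature. Coactivator recruitment read by TR-FRET, triplicate wells.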

Structure (SMILES)	IC50
CCOC(=O)c1oc2ccc(S(=O)(=O)N(CCc3ccccc3)Cc3ccc(-c4ccccc4C(=O)OC(C)(C)C)cc3)cc2c1C [Example M4-84, ethyl 3-methyl-5-(N-((2′-(tert-butoxycarbonyl)-[1,1′-biphenyl]-4-yl)methyl)-N-phenethylsulfamoyl)benzofuran-2-carboxylate]	50 to 100 µM
CCOC(=O)c1oc2ccc(S(=O)(=O)N(CCc3ccccc3)Cc3ccc(C(=O)c4ccccc4)cc3)cc2c1C [Example M4-85, ethyl 3-methyl-5-(N-(4-benzoylbenzyl)-N-phenethylsulfamoyl)benzofuran-2-carboxylate]	50 to 100 µM
CCOC(=O)c1oc2ccc(S(=O)(=O)N(CCc3ccccc3)c3ccccc3)cc2c1C [Example M8-10]	50 to 100 µM
CCOC(=O)c1oc2ccc(S(=O)(=O)N(CCc3ccccc3)c3ccc(Cc4ccccc4)cc3)cc2c1C [Example M8-11, ethyl 3-methyl-5-(N-(4-benzylphenyl)-N-phenethylsulfamoyl)benzofuran-2-carboxylate]	50 to 100 µM
CCOC(=O)c1oc2ccc(S(=O)(=O)N(CCc3ccccc3)c3ccc(Oc4ccccc4)cc3)cc2c1C [Example M8-12, ethyl 3-methyl-5-(N-(4-phenoxyphenyl)-N-phenethylsulfamoyl)benzofuran-2-carboxylate]	50 to 100 µM
CCOC(=O)c1oc2ccc(S(=O)(=O)N(CCc3ccccc3)CCc3ccccc3)cc2c1C [Example M8-13, ethyl 3-methyl-5-(N,N-diphenylethylsulfamoyl)benzofuran-2-carboxylate]	50 to 100 µM
CCOC(=O)c1oc2ccc(S(=O)(=O)N(CCc3ccccc3)c3ccc(N4CCOCC4)cc3)cc2c1C [Example M8-63, ethyl 3-methyl-5-(N-(4-morpholinophenyl)-N-phenethylsulfamoyl)benzofuran-2-carboxylate]	50 to 100 µM
CCOC(=O)c1oc2ccc(S(=O)(=O)N(CCc3ccccc3)c3ccc(N4CCN(C)CC4)cc3)cc2c1C [Example M8-64, ethyl 3-methyl-5-(N-(4-(4-methylpiperazin-1-yl)phenyl)-N-phenethylsulfamoyl)benzofuran-2-carboxylate]	50 to 100 µM
CCOC(=O)c1oc2ccc(S(=O)(=O)N(CCc3ccccc3)c3ccc(N4CCN(C(=O)OC(C)(C)C)CC4)cc3)cc2c1C [Example M8-65, ethyl 3-methyl-5-(N-(4-(4-(tert-butoxycarbonyl)piperazin-1-yl)phenyl)-N-phenethylsulfamoyl)benzofuran-2-carboxylate]	50 to 100 µM
CCOC(=O)c1oc2ccc(S(=O)(=O)N(CCc3ccccc3)c3ccc(N4CCN(C(=O)CC(C)(C)C)CC4)cc3)cc2c1C [Example M8-66, ethyl 3-methyl-5-(N-(4-(4-(3,3-dimethylbutyryl)piperazin-1-yl)phenyl)-N-phenethylsulfamoyl)benzofuran-2-carboxylate]	50 to 100 µM
CCCOC(=O)N1CCN(c2ccc(N(CCc3ccccc3)S(=O)(=O)c3ccc4oc(C(=O)OCC)c(C)c4c3)cc2)CC1 [Example M8-67, ethyl 3-methyl-5-(N-(4-(4-(propoxycarbonyl)piperazin-1-yl)phenyl)-N-phenethylsulfamoyl)benzo furan-2-carboxylate]	50 to 100 µM
CCOC(=O)c1oc2ccc(S(=O)(=O)N(CCc3ccccc3)c3ccc(N4CCN(C(C)=O)CC4)cc3)cc2c1C [Example M8-68, ethyl 3-methyl-5-(N-(4-(4-acetylpiperazin-1-yl)phenyl)-N-phenethylsulfamoyl)benzofuran-2-carboxylate]	50 to 100 µM
CCOC(=O)c1oc2ccc(S(=O)(=O)N(CCc3ccccc3)c3ccc(N4CCN(C(=O)c5ccccc5)CC4)cc3)cc2c1C [Example M8-69, ethyl 3-methyl-5-(N-(4-(4-benzoylpiperazin-1-yl)phenyl)-N-phenethylsulfamoyl)-3-methylbenzofuran-2-carboxylate]	50 to 100 µM
CCOC(=O)c1oc2ccc(S(=O)(=O)N(CCc3ccccc3)c3ccc(N4CCN(Cc5ccccc5)CC4)cc3)cc2c1C [Example M8-70, ethyl 3-methyl-5-(N-(4-(4-benzylpiperazin-1-yl)phenyl)-N-phenethylsulfamoyl)benzofuran-2-carboxylate]	50 to 100 µM
CCOC(=O)c1oc2ccc(S(=O)(=O)N(CCc3ccccc3)c3ccc(N4CCN(C(=O)N(C)C)CC4)cc3)cc2c1C [Example M8-71, ethyl 3-methyl-5-(N-(4-(4-(dimethylcarbamoyl)piperazin-1-yl)phenyl)-N-phenethylsulfamoyl)benzofuran-2-carboxylate]	50 to 100 µM
CCOC(=O)c1oc2ccc(S(=O)(=O)N(CCc3ccccc3)c3ccc(N4CCN(S(C)(=O)=O)CC4)cc3)cc2c1C [Example M8-72, ethyl 3-methyl-5-(N-(4-(4-(methylsulfonyl)piperazin-1-yl)phenyl)-N-phenethylsulfamoyl)benzofuran-2-carboxylate]	50 to 100 µM
CCOC(=O)c1oc2ccc(S(=O)(=O)N(CCc3ccccc3)c3ccc(N4CCN(C(=O)OC(C)(C)C)CC4)c(C(F)(F)F)c3)cc2c1C [Example M8-74, ethyl 3-methyl-5-(N-(4-(4-(tert-butoxycarbonyl)piperazin-1-yl)-3-(trifluoromethyl)phenyl)-N-phenethylsulfamoyl)benzofuran-2-carboxylate]	50 to 100 µM
CCOC(=O)c1oc2ccc(S(=O)(=O)N(CCc3ccccc3)c3ccc(N4CCN(C(=O)OC(C)(C)C)CC4)nc3)cc2c1C [Example M8-75, ethyl 3-methyl-5-(N-(6-(4-(tert-butoxycarbonyl)piperazin-1-yl)pyridin-3-yl)-N-phenethylsulfamoyl)benzofuran-2-carboxylate]	50 to 100 µM
CCOC(=O)c1oc2ccc(S(=O)(=O)N(CCc3ccccc3)c3ccc(CN4CCN(C(=O)OC(C)(C)C)CC4)cc3)cc2c1C [Example M8-76, ethyl 3-methyl-5-(N-(4-((4-(tert-butoxycarbonyl)piperazin-1-yl)methyl)phenyl)-N-phenethylsulfamoyl)benzofuran-2-carboxylate]	50 to 100 µM
CCOC(=O)c1oc2ccc(S(=O)(=O)N(CCc3ccccc3)c3ccccc3N3CCN(C(=O)OC(C)(C)C)CC3)cc2c1C [Example M8-77, ethyl 3-methyl-5-(N-(2-(4-(tert-butoxycarbonyl)piperazin-1-yl)phenyl)-N-phenethylsulfamoyl)benzofuran-2-carboxylate]	50 to 100 µM
CCOC(=O)c1oc2ccc(S(=O)(=O)N(CCc3ccccc3)c3cccc(N4CCN(C)CC4)c3)cc2c1C [Example M8-78, ethyl 3-methyl-5-(N-(3-(4-methylpiperazin-1-yl)phenyl)-N-phenethylsulfamoyl)benzofuran-2-carboxylate]	50 to 100 µM
CCOC(=O)c1oc2ccc(S(=O)(=O)N(CCc3ccccc3)Cc3ccc(N4CCOCC4)cc3)cc2c1C [Example M8-79, ethyl 3-methyl-5-(N-(4-morpholinobenzyl)-N-phenethylsulfamoyl)benzofuran-2-carboxylate]	50 to 100 µM
CCOC(=O)c1oc2ccc(S(=O)(=O)N(CCc3ccccc3)Cc3ccc(N4CCN(C)CC4)cc3)cc2c1C [Example M8-80, ethyl 3-methyl-5-(N-(4-(4-methylpiperazin-1-yl)benzyl)-N-phenethylsulfamoyl)benzofuran-2-carboxylate]	50 to 100 µM
